Molecular target: T1, β2-receptor (Cavia porcellus, UniProt Q8K4Z4)
T1 construct: Trachea was removed and cut from thyroid cartilage to trachea crotch; from tissue; host or cells: guinea pig (Hartley) isolated trachea strips
Experiment: Antagonistic effect on isolated trachea strip constriction induced by histamine (study of effect on β2-receptor)
Assay type: cell-based
Settings: isolated guinea pig (Hartley) trachea strips contracted with histamine to 50% of maximum; tested compounds formulated as 10^−6 M solution; 37° C.
Text: Study of the Effect of Compounds of the Invention on β2-Receptor
Sample: All tested compounds were formulated into solution of 10^−6 M.
The antagonistic effects of the compounds of the present invention on the trachea constriction induced by histamine.
Guinea pigs were sacrificed and cut through the skin and subcutaneous tissue on ventral side of neck. Trachea was removed and cut from thyroid cartilage to trachea crotch, then placed into an ice cooled oxygenated Kebs-Hensleits solution. The connective tissues around the trachea were cut off. The trachea was held by a nipper on one end and cut into trachea strips (2 cm×3 mm) in helix. The samples were then put into a bath containing 20 ml of Kebs-Hensleits solution. The lower end of the trachea strips was fastened to a vent hook and the upper end was connected to a strain gauge transducer, thus the tension change was measured by the recorder. The bath was controlled at 37° C. and oxygen gas was continuously supplied. The preload of the samples was 2 g. The samples were equilibrated in the nutrient solution for 1 hour and the solution was refreshed every 20 min.
When the tension of the samples reached a stable value, various concentrations (1×10^−10˜3×10^−4 mol·L^−1) of histamine were added to the bath. A dose-effect curve was established to determine the concentration of histamine when 50% of the maximum contraction was reached. After refreshing the solution and balancing the samples for 60 min, an amount of histamine was added to the bath. When the tension of trachea strips reached 50% of the maximum contraction, the tested compounds were added to bath, and the antagonistic effect (represented as relaxing rate) of the compounds on the isolated trachea constriction induced by histamine was calculated as below:
Relaxing rate (%)=[(Contraction intensity after histamine addition−Contraction intensity after tested compounds addition)/[…]]×100%

T1 sequence (Q8K4Z4 whole entry): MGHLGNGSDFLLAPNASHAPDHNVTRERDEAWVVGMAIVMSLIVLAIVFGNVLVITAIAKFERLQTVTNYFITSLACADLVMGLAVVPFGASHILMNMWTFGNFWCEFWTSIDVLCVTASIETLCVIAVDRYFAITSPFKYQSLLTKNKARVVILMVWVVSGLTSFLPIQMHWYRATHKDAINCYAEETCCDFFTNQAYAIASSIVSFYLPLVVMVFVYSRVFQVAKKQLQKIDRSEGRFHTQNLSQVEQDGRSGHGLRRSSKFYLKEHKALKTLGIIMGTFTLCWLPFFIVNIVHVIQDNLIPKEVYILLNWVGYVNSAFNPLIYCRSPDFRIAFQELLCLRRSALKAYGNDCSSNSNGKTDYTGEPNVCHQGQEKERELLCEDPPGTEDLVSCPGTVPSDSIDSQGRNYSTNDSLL

Compared with `CC(C)(C)NC(CO)c1ccc(N)c(C(F)(F)F)c1.Cl` (stereo not drawn) [drawing 12], `CC(C)(C)NC(CO)c1cc(Cl)c(N)c(C#N)c1.Cl` (stereo not drawn) [drawing 6] is higher in “Relaxing rate (%)” value: 70.2% for the first, 100.0% for the second.

Compared with `CC(C)(C)NC(CO)c1ccc(N)c(C(F)(F)F)c1.Cl` (stereo not drawn) [drawing 14], `CC(C)(C)NC(CO)c1cc(Cl)c(N)c(C#N)c1.Cl` (stereo not drawn) [drawing 7] is lower in “Relaxing rate (%)” value: 88.3% for the first, 78.1% for the second.

Going from `CC(C)(C)NC(CO)c1cc(Cl)c(N)c(C#N)c1.Cl` (stereo not drawn) [drawing 8] to `CC(C)(C)NC(CO)c1ccc(N)c(C(F)(F)F)c1.Cl` (stereo not drawn) [drawing 13], the “Relaxing rate (%)” value falls from 112.1% to 55.3%.
